Results published in patent US20030166703A1, “Method of treatment” (priority 2000, published 2003).

System: male Lister Hooded rats
Test: Rat Conditioned Emotional Response (CER) Model of Anxiety
Assay type: in vivo
Conditions: 10.0 mg/kg po, 40 min pre-test, hydrochloride; for Suppression Ratio (± SEM): SR 0 = complete suppression, 0.5 = absence of fear; for Rate of responding per minute ±SEM “Dur” period / Rate of responding per minute ±SEM “Pre” period: collapsed across two test trials
Text: Sixty male Lister Hooded rats with a mean free-feeding weight of 472 g were used. Rats were housed in cages of four and were fed a restricted diet designed to maintain rats at 85% of their free-feeding body weight. A 12:12 light/dark cycle was in effect in the colony room and the rats were trained and tested during the light part of the cycle.
These chambers were housed in outer sound and light attenuating shells equipped with a ventilation fan which also helped to mask external noise. A single operant lever was positioned on the left side of the front panel of the operant chamber, approximately 2 cm above the grid floor. Coulbourn animal test cage grid floor shockers (E13-14) were used to deliver shock (0.4 mA, 0.5 s) to the grid floors (model E-10-10SF). […] A houselight (4.0 mA, 28V) was positioned on the front wall of the chamber, above the food magazine, approximately 1.0 cm below the ceiling.
Once the rats had been placed on a restricted feeding regime, magazine training began. On each of the first four days of training each rat received a 30 minute session of magazine training during which pellets were delivered on a variable interval (VI) 30 s schedule. […] These sessions lasted until either 30 minutes expired or 30 food pellets were delivered. […] On the VI 90 s schedule pellets could be earned by pressing the lever, on average, once every 90 s. The houselight was off throughout all of the training sessions.
CER training sessions were approximately 60 minutes long and usually conducted on 5 days per week. During these sessions, food pellets continued to be available on an VI 90 s schedule as before. However, the rats were now presented with two two-minute long periods of houselight illumination. The first light presentation occurred approximately 20 minutes after the start of the session (range 15-25 minutes) and the second light presentation occurred approximately 20 minutes after the first light presentation (range 15-25 minutes). Light presentations were occasionally followed by a 0.5 second 0.4 mA footshock. In a given session, footshock could follow neither, one, or both of the light presentations. On average rats would receive one shock presentation per session. The rate of lever-pressing during each of the light presentations (the ‘during’ or ‘dur’ period) and the rate of lever-pressing in the two minute interval preceding each light presentation (the ‘pre’ period) was recorded.
Once a reliable SR was observed, occasional test sessions occurred. Test sessions were identical to training session except that footshock was never delivered following the first light presentation. Tests occurred no more frequently than once per week and a baseline training session was always carried out before each test session.
The data were analysed with a mixed within-subject (trials) and between-subjects (drug treatment) analysis of variance (ANOVA). The ANOVA was conducted separately on the pre and during light response rates and on the suppression ratios. Significant interactions were followed by one-way analysis of variance on the data collected for each trial. Significant group effects were analysed using post-hoc Dunnett t-tests.

Q: Which results are given for `CNC1=Nc2ccc(Cl)cc2C(c2ccccc2)=[N+]([O-])C1.Cl` [Chlordiazepoxide, chlordiazepoxide hydrochloride]?
A: Suppression Ratio (± SEM): 0.37 ± 0.05; Suppression Ratio (± SEM) (listed as CDP): significant increase in SR; Rate of responding per minute ±SEM “Dur” period: 13.7 ± 3.1 per minute; Rate of responding per minute ±SEM “Pre” period: 21.8 ± 2.9 per minute; Rate of responding per minute ±SEM “Dur” period (listed as CDP): significant increase in dur responding; Rate of responding per minute ±SEM “Pre” period (listed as chlordiazepoxide): significant increase in pre responding
